We go through 29 molecules from patent US20070299087A1, “New Compounds 319” (AstraZeneca AB, priority 2006, published 2007).

The pIC50 is the IC50 on a negative log10 scale, so that one unit is a factor of ten. A lower pIC50 goes with a high IC50.

pIC50: −log10 of the molar value. Where a name gives a salt, the structure may show the parent alone.

T1 sequence (P56817 22-460): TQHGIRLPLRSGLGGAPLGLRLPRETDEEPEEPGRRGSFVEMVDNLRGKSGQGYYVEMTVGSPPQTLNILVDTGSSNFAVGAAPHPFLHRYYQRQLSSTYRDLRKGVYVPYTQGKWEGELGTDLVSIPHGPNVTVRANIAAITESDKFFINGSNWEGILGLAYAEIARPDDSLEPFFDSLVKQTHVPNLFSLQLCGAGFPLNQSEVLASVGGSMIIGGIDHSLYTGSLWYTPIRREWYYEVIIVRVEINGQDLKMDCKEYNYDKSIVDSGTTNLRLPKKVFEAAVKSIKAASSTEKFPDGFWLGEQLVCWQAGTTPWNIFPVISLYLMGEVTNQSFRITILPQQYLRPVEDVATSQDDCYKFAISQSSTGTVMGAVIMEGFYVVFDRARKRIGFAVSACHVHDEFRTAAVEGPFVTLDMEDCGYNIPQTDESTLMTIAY

The assay addresses T1, human β-Secretase (sBACE-Fc) (Homo sapiens, UniProt P56817).
T1 construct: The soluble part of the human β-Secretase (AA 1-AA 460) was cloned; Fc domain of IgG1 (C); made in house
Put plainly: TR-FRET assay (β-secretase enzyme, substrate (Europium)[…](Qsy7)). It is filed as biochemical. The method, then:
The enzyme used in the IGEN Cleavage-, Fluorescent-, TR-FRET- and BiaCore assays is described as follows:
The soluble part of the human β-Secretase (AA 1-AA 460) was cloned into the ASP2-Fc10-1-IRES-GFP-neoK mammalian expression vector. The gene was fused to the Fc domain of IgG1 (affinity tag) and stably cloned into HEK 293 cells. Purified sBACE-Fc is stored in Tris buffer, pH 9.2 and has a purity of 95%.
Enzyme was diluted to 6 μg/mL and the substrate (Europium)[…](Qsy7) to 200 nM in reaction buffer (NaAcetate, chaps, triton x-100, EDTA pH 4.5). Compounds were diluted to the desired concentration in dimethyl sulfoxide (final dimethyl sulfoxide concentration in assay is 5%). The assay was done in a Costar 384 well round bottom, low volume, non-binding surface plate (Corning #3676). Enzyme (9 μL) and 1 μL of compound in dimethyl sulfoxide was added to the plate, mixed and pre-incubated for 10 min. Substrate (10 μL) was added and the reaction proceeded in the dark for 15 min at RT. The reaction was stopped with the addition of 7 μL NaAcetate, pH 9. The fluorescence of the product was measured on a Victor II plate reader with an excitation wavelength of 340 nm and an emission wavelength of 615 nm. […] The dimethyl sulfoxide control defined the 100% activity level and 0% activity was defined by exclusion of the enzyme (using reaction buffer instead).
A general note: TR-FRET usually uses a lanthanide donor and a delayed reading to cut background.
Turning to `NC1=NC(c2ccncc2)(c2cccc(-c3cccnc3F)c2)C2=NCCCN12` (centres unmarked) [Example 17, 8-[3-(2-Fluoropyridin-3-yl)phenyl]-8-pyridin-4-yl-2,3,4,8-tetrahydroimidazo[1,5-a]pyrimidin-6-amine 0.25 acetate], the pIC50 was 6.82.
On to `CS(=O)(=O)c1cccc(-c2cccc(C3(c4ccncc4)N=C(N)N4CCCN=C43)c2)c1` (centres unmarked) [Example 25, 8-[3′-(Methylsulfonyl)biphenyl-3-yl]-8-pyridin-4-yl-2,3,4,8-tetrahydroimidazo[1,5-a]pyrimidin-6-amine 0.25 acetate], for which the negative logarithm of the IC50 (pIC50) was 5.29.
Then `NC1=NC(c2ccncc2)(c2cccc(-c3cc(Cl)ccc3F)c2)C2=NCCCN12` (centres unmarked) [Example 31, 8-(5′-Chloro-2′-fluorobiphenyl-3-yl)-8-pyridin-4-yl-2,3,4,8-tetrahydroimidazo[1,5-a]pyrimidin-6-amine 0.25 acetate], with 7.10; and `NC1=NC(c2ccncc2)(c2cccc(-c3cncc(F)c3)c2)C2=NCC(F)(F)CN12` (centres unmarked) [Example 71, 3,3-Difluoro-8-[3-(5-fluoropyridin-3-yl)phenyl]-8-pyridin-4-yl-2,3,4,8-tetrahydroimidazo[1,5-a]pyrimidin-6-amine acetate], with 6.92; and `Cc1nc(C2(c3cccc(-c4cc(Cl)cc(Cl)c4)c3)N=C(N)N3CCCN=C32)cs1` (centres unmarked) [Example 57, 8-(3′,5′-Dichlorobiphenyl-3-yl)-8-(2-methyl-1,3-thiazol-4-yl)-2,3,4,8-tetrahydroimidazo[1,5-a]pyrimidin-6-amine acetate], with 5.42.
Then `NC1=NC(c2ccncc2)(c2cccc(-c3ccc(F)c(Cl)c3)c2)C2=NCCCN12` (centres unmarked) [Example 37, 8-(3′-Chloro-4′-fluorobiphenyl-3-yl)-8-pyridin-4-yl-2,3,4,8-tetrahydroimidazo[1,5-a]pyrimidin-6-amine 0.25 acetate], with 7.00.
`COc1cncc(-c2cccc(C3(c4ccncc4)N=C(N)N4CCCN=C43)c2)c1` (centres unmarked) [Example 15, 8-[3-(5-Methoxypyridin-3-yl)phenyl]-8-pyridin-4-yl-2,3,4,8-tetrahydroimidazo[1,5-a]pyrimidin-6-amine 0.25 acetate] had a pIC50 of 6.93.
`NC1=NC(c2ccoc2)(c2cccc(-c3cc(Cl)cc(Cl)c3)c2)C2=NCCCN12` (centres unmarked) [Example 43, 8-(3′,5′-Dichlorobiphenyl-3-yl)-8-(3-furyl)-2,3,4,8-tetrahydroimidazo[1,5-a]pyrimidin-6-amine acetate] gave a pIC50 of 6.82.
In turn, `NC1=NC(c2ccoc2)(c2cccc(-c3cccnc3F)c2)C2=NCCCN12` (centres unmarked) [Example 44, 8-[3-(2-Fluoropyridin-3-yl)phenyl]-8-(3-furyl)-2,3,48-tetrahydroimidazo[1,5-a]pyrimidin-6-amine acetate] showed a pIC50 of 6.18.
Then `COc1cccc(-c2cccc(C3(c4ccncc4)N=C(N)N4CCCN=C43)c2)c1` (centres unmarked) [Example 14, 8-(3′-Methoxybiphenyl-3-yl)-8-pyridin-4-yl-2,3,4,8-tetrahydroimidazo[1,5-a]pyrimidin-6-amine 0.25 acetate], with 7.14.
Regarding `NC1=NC(c2ccncc2)(c2cccc(-c3cc(Cl)ccc3Cl)c2)C2=NCCCN12` (centres unmarked) [Example 36, 8-(2′,5′-Dichlorobiphenyl-3-yl)-8-pyridin-4-yl-2,3,4,8-tetrahydroimidazo[1,5-a]pyrimidin-6-amine 0.25 acetate], the pIC50 was 6.57.
Then `NC1=NC(c2cccc(-c3cc(Cl)cc(Cl)c3)c2)(c2ccco2)C2=NCCCN12` (centres unmarked) [Example 50, 8-(3′,5′-Dichlorobiphenyl-3-yl)-8-(2-furyl)-2,3,4,8-tetrahydroimidazo[1,5-a]pyrimidin-6-amine acetate], with 7.13.
Then `NC1=NC(c2ccncc2)(c2cccc(-c3cccc(Cl)c3F)c2)C2=NCCCN12` (centres unmarked) [Example 23, 8-(3′-Chloro-2′-fluorobiphenyl-3-yl)-8-pyridin-4-yl-2,3,4,8-tetrahydroimidazo[1,5-a]pyrimidin-6-amine 0.25 acetate], with 7.00.
Then `COc1cccc(-c2cc(C3(c4ccncc4)N=C(N)N4CC(F)(F)CN=C43)ccc2F)c1F` (centres unmarked) [Example 82, 3,3-Difluoro-8-(2′,6-difluoro-3′-methoxybiphenyl-3-yl)-8-pyridin-4-yl-2,3,4,8-tetrahydroimidazo[1,5-a]pyrimidin-6-amine acetate], with 7.38; and `COc1cncc(-c2cc(C3(c4ccncc4)N=C(N)N4CC(F)(F)CN=C43)ccc2F)c1` (centres unmarked) [Example 83, 3,3-Difluoro-8-[4-fluoro-3-(5-methoxypyridin-3-yl)phenyl]-8-pyridin-4-yl-2,3,4,8-tetrahydroimidazo[1,5-a]pyrimidin-6-amine 0.5 acetate], with 7.32.
Molecule `NC1=NC(c2ccncc2)(c2cccc(-c3cccc(Cl)c3)c2)C2=NCCCN12` (centres unmarked) [Example 16, 8-(3′-Chlorobiphenyl-3-yl)-8-pyridin-4-yl-2,3,4,8-tetrahydroimidazo[1,5-a]pyrimidin-6-amine 0.25 acetate] gave a negative-log IC50 (pIC50) of 7.28.
Then `N#Cc1cccc(-c2cccc(C3(c4ccncc4)N=C(N)N4CCCN=C43)c2)c1` (centres unmarked) [Example 13, 3′-(6-Amino-8-pyridin-4-yl-2,3,4,8-tetrahydroimidazo[1,5-a]pyrimidin-8-yl)-biphenyl-3-carbonitrile hydrochloride], with 6.45; and `NC1=NC(c2cccc(-c3cccnc3F)c2)(c2ccncc2F)C2=NCC(F)(F)CN12` (centres unmarked) [Example 90, 3,3-Difluoro-8-(3-fluoropyridin-4-yl)-8-[3-(2-fluoropyridin-3-yl)phenyl]-2,3,4,8-tetrahydroimidazo[1,5-a]pyrimidin-6-amine], with 6.54; and `NC1=NC(c2ccncc2)(c2cccc(-c3cncc(F)c3)c2)C2=NCCCN12` (centres unmarked) [Example 34, 8-[3-(5-Fluoropyridin-3-yl)phenyl]-8-pyridin-4-yl-2,3,4,8-tetrahydroimidazo[1,5-a]pyrimidin-6-amine 0.25 acetate], with 6.73.
Then `NC1=NC(c2ccncc2)(c2cccc(-c3cccc(C(F)(F)F)c3)c2)C2=NCCCN12` (centres unmarked) [Example 24, 8-Pyridin-4-yl-8-[3′-(trifluoromethyl)biphenyl-3-yl]-2,3,4,8-tetrahydroimidazo[1,5-a]pyrimidin-6-amine 0.25 acetate], with 6.41; and `NC1=NC(c2ccncc2)(c2cccc(-c3cccc(Cl)c3Cl)c2)C2=NCCCN12` (centres unmarked) [Example 28, 8-(2′,3′-Dichlorobiphenyl-3-yl)-8-pyridin-4-yl-2,3,4,8-tetrahydroimidazo[1,5-a]pyrimidin-6-amine 0.25 acetate], with 5.29; and `NC1=NC(c2ccsc2)(c2cccc(-c3cc(Cl)cc(Cl)c3)c2)C2=NCCCN12` (centres unmarked) [Example 63, 8-(3′,5′-Dichlorobiphenyl-3-yl)-8-(3-thienyl)-2,3,4,8-tetrahydroimidazo[1,5-a]pyrimidin-6-amine acetate], with 7.17.
Then `NC1=NC(c2ccncc2)(c2cccc(-c3cccnc3F)c2)C2=NCC(F)(F)CN12` (centres unmarked) [Example 68, 3,3-Difluoro-8-[3-(2-fluoropyridin-3-yl)phenyl]-8-pyridin-4-yl-2,3,4,8-tetrahydroimidazo[1,5-a]pyrimidin-6-amine 0.75 acetate], with 7.23; and `NC1=NC(c2ccsc2)(c2cccc(-c3cccnc3F)c2)C2=NCCCN12` (centres unmarked) [Example 64, 8-[3-(2-Fluoropyridin-3-yl)phenyl]-8-(3-thienyl)-2,3,4,8-tetrahydroimidazo[1,5-a]pyrimidin-6-amine acetate], with 6.61; and `NC1=NC(c2cccc(-c3cncnc3)c2)(c2ccncc2F)C2=NCC(F)(F)CN12` (centres unmarked) [Example 91, 3,3-Difluoro-8-(3-fluoropyridin-4-yl)-8-(3-pyrimidin-5-ylphenyl)-2,3,4,8-tetrahydroimidazo[1,5-a]pyrimidin-6-amine], with 6.36.
Molecule `N#Cc1cc(-c2cccc(C3(c4ccncc4)N=C(N)N4CCCN=C43)c2)ccc1F` (centres unmarked) [Example 22, 3′-(6-amino-8-pyridin-4-yl-2,3,4,8-tetrahydroimidazo[1,5-a]pyrimidin-8-yl)-4-fluorobiphenyl-3-carbonitrile 0.25 acetate] showed a pIC50 of 6.38.
Then `COc1cccc(-c2cccc(C3(c4ccncc4)N=C(N)N4CC(F)(F)CN=C43)c2)c1` (centres unmarked) [Example 72, 3,3-Difluoro-8-(3′-methoxybiphenyl-3-yl)-8-pyridin-4-yl-2,3,4,8-tetrahydroimidazo[1,5-a]pyrimidin-6-amine 1.25 acetate], with 7.17.
As for `N#Cc1ccc(F)c(-c2cccc(C3(c4ccncc4)N=C(N)N4CCCN=C43)c2)c1` (centres unmarked) [Example 20, 3′-(6-amino-8-pyridin-4-yl-2,3,4,8-tetrahydroimidazo[1,5-a]pyrimidin-8-yl)-6-fluorobiphenyl-3-carbonitrile 0.25 acetate], the negative logarithm of the IC50 (pIC50) is 6.40. This pIC50 lies 0.77 log units lower than the previous one.
Then `NC1=NC(c2ccncc2)(c2ccc(F)c(-c3cccnc3F)c2)C2=NCC(F)(F)CN12` (centres unmarked) [Example 81, 3,3-Difluoro-8-[4-fluoro-3-(2-fluoropyridin-3-yl)phenyl]-8-pyridin-4-yl-2,3,4,8-tetrahydroimidazo[1,5-a]pyrimidin-6-amine acetate], with 7.31.
